Laboratory results taken from patent US20140275094A1, “METHOD FOR TREATING PULMONARY ARTERIAL HYPERTENSION IN A PATIENT NOT HAVING IDIOPATHIC PULMONARY FIBROSIS” (GILEAD SCIENCES, INC., priority 2012, published 2014).

Tests used:
[1] = MGPS disproportionality analysis of FDA AERS spontaneous reports of hepatic events; parameters: species or system human; key to EBGM: ratio of observed to expected reports (independence assumption); settings: for Count / EBGM: FDA AERS, 18 months post approval; for EB05: lower bound of 90% confidence interval of EBGM
Protocol: A disproportionality analysis was performed for ambrisentan and bosentan using information from the FDA Adverse Events Reporting System (AERS) spontaneous reporting database. […] The value of the EBGM reflects the ratio of the number of observed reports of a drug-adverse event combination with the number expected under an assumption of independence between the drugs and events in the database. […] In order to reduce the occurrence of false positives due to age group or gender influence, the safety reports were stratified by subject age group and gender. For each drug, the AERS data were analyzed for the 18-month period following the respective approval dates for ambrisentan and bosentan: 15 Jun. 2007 to 14 Dec. 2008 for ambrisentan and 21 Nov. 2001 to 20 May 2003 for bosentan. […] This threshold is generally accepted as a signal of disproportional reporting (Szarfman, et al., “Use of screening algorithms and computer systems to efficiently signal higher-than-expected combinations of drugs and events in the US FDA's spontaneous reports database.” Drug Safety 25, 381-392 (2002)). The comparator dataset in the calculations for ambrisentan and bosentan included data for all other drugs in the AERS database.

[2] = target: T1, ETA receptor (Homo sapiens, UniProt P25101); settings: read-out: affinity for the ETA receptor; cited from earlier work
T1 sequence (P25101 21-427): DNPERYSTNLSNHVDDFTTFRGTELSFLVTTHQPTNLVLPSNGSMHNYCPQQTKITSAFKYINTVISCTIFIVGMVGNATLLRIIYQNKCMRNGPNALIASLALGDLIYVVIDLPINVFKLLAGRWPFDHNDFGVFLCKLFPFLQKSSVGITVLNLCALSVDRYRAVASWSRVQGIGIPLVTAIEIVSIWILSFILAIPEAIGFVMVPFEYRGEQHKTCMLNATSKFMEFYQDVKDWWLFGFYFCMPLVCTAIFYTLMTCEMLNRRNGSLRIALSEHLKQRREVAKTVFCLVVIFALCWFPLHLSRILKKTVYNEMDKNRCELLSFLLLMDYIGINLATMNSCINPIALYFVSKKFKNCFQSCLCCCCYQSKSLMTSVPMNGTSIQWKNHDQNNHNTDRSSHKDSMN

[3] = Blood alkaline phosphate increased
[4] = Blood bilirubin unconjugated increased

**Q.** With `COc1ccccc1Oc1c(NS(=O)(=O)c2ccc(C(C)(C)C)cc2)nc(-c2ncccn2)nc1OCCO` [Bosentan] as the compound, how does the Count ([1]; ALT increased) read?
**A.** The Count was 57.

**Q.** And the EBGM ([1]; ALT increased)?
**A.** The EBGM was 11.57.

**Q.** What about the Count ([1]; AST increased) of the same compound?
**A.** Its Count is 60.

**Q.** And the EBGM ([1]; AST increased)?
**A.** Its EBGM is 12.52.

**Q.** What about the Count ([1]; Ascites) of the same compound?
**A.** Its Count is 8.

**Q.** What about the EBGM ([1]; Ascites) of the same compound?
**A.** The EBGM was 3.60.

**Q.** And the Count ([1]; Bilirubin conjugated increased)?
**A.** Its Count is 5.

**Q.** What about the EBGM ([1]; Bilirubin conjugated increased) of the same compound?
**A.** Its EBGM is 13.91.

**Q.** What about the Count [1, 3] of the same compound?
**A.** Its Count is 46.

**Q.** And the EBGM [1, 3]?
**A.** The EBGM was 18.79.

**Q.** What about the Count ([1]; Blood bilirubin increased) of the same compound?
**A.** Its Count is 37.

**Q.** And the EBGM ([1]; Blood bilirubin increased)?
**A.** The EBGM was 18.75.

**Q.** What about the Count [1, 4] of the same compound?
**A.** The Count was 2.

**Q.** What about the EBGM [1, 4] of the same compound?
**A.** The EBGM was 3.28.

**Q.** What about the Count ([1]; Hepatic congestion) of the same compound?
**A.** The Count was 5.

**Q.** And the EBGM ([1]; Hepatic congestion)?
**A.** The EBGM was 13.18.

**Q.** And the Count ([1]; Hepatic encephalopathy)?
**A.** The Count was 1.

**Q.** And the EBGM ([1]; Hepatic encephalopathy)?
**A.** Its EBGM is 1.00.

**Q.** And the Count ([1]; Hepatic enzyme increased)?
**A.** The Count was 0.

**Q.** And the Count ([1]; Hepatic failure)?
**A.** The Count was 3.

**Q.** What about the EBGM ([1]; Hepatic failure) of the same compound?
**A.** Its EBGM is 1.07.

**Q.** What about the Count ([1]; Hepatic function abnormal) of the same compound?
**A.** The Count was 2.

**Q.** And the EBGM ([1]; Hepatic function abnormal)?
**A.** Its EBGM is 0.91.

**Q.** What about the Count ([1]; Hepatic infarction) of the same compound?
**A.** Its Count is 1.

**Q.** And the EBGM ([1]; Hepatic infarction)?
**A.** Its EBGM is 1.44.

**Q.** What about the Count ([1]; Hepatic necrosis) of the same compound?
**A.** Its Count is 1.

**Q.** And the EBGM ([1]; Hepatic necrosis)?
**A.** The EBGM was 0.94.

**Q.** What about the Count ([1]; Hepatic steatosis) of the same compound?
**A.** Its Count is 0.

**Q.** What about the Count ([1]; Hepatitis acute) of the same compound?
**A.** The Count was 1.

**Q.** What about the EBGM ([1]; Hepatitis acute) of the same compound?
**A.** The EBGM was 1.04.

**Q.** And the Count ([1]; Hepatitis)?
**A.** Its Count is 5.

**Q.** What about the EBGM ([1]; Hepatitis) of the same compound?
**A.** Its EBGM is 1.63.

**Q.** What about the Count ([1]; Hepatomegaly) of the same compound?
**A.** Its Count is 1.

**Q.** And the EBGM ([1]; Hepatomegaly)?
**A.** The EBGM was 0.79.

**Q.** What about the Count ([1]; Hepatosplenomegaly) of the same compound?
**A.** The Count was 2.

**Q.** What about the EBGM ([1]; Hepatosplenomegaly) of the same compound?
**A.** Its EBGM is 2.09.

**Q.** What about the Count ([1]; INR increased) of the same compound?
**A.** Its Count is 9.

**Q.** And the EBGM ([1]; INR increased)?
**A.** Its EBGM is 3.08.

**Q.** What about the Count ([1]; Liver disorder) of the same compound?
**A.** Its Count is 1.

**Q.** And the EBGM ([1]; Liver disorder)?
**A.** The EBGM was 0.56.

**Q.** What about the Count ([1]; Liver function test abnormal) of the same compound?
**A.** The Count was 38.

**Q.** What about the EBGM ([1]; Liver function test abnormal) of the same compound?
**A.** Its EBGM is 9.59.

**Q.** What about the Count ([1]; Prothrombin time prolonged) of the same compound?
**A.** The Count was 2.

**Q.** What about the EBGM ([1]; Prothrombin time prolonged) of the same compound?
**A.** Its EBGM is 1.22.

**Q.** And the Count ([1]; Spider naevus)?
**A.** Its Count is 1.

**Q.** What about the EBGM ([1]; Spider naevus) of the same compound?
**A.** The EBGM was 1.46.

**Q.** What about the Count ([1]; Transaminases increased) of the same compound?
**A.** Its Count is 5.

**Q.** What about the EBGM ([1]; Transaminases increased) of the same compound?
**A.** Its EBGM is 3.58.

**Q.** What about the EB05 ([1]; blood alkaline phosphate increased) of the same compound?
**A.** The EB05 was 14.6.

**Q.** And the EB05 ([1]; liver function test abnormal)?
**A.** Its EB05 is 6.9.

**Q.** With `COC(c1ccccc1)(c1ccccc1)[C@H](Oc1nc(C)cc(C)n1)C(=O)O` [Ambrisentan, (25)-2-[(4,6-dimethylpyrimidin-2-yl)oxy]-3-methoxy-3,3-diphenylpropanoic acid] as the compound, how does the Count ([1]; ALT increased) read?
**A.** The Count was 3.

**Q.** What about the EBGM ([1]; ALT increased) of the same compound?
**A.** The EBGM was 1.55.

**Q.** And the Count ([1]; AST increased)?
**A.** Its Count is 3.

**Q.** And the EBGM ([1]; AST increased)?
**A.** Its EBGM is 1.63.

**Q.** What about the Count ([1]; Ascites) of the same compound?
**A.** Its Count is 2.

**Q.** What about the EBGM ([1]; Ascites) of the same compound?
**A.** The EBGM was 1.80.

**Q.** What about the Count ([1]; Bilirubin conjugated increased) of the same compound?
**A.** Its Count is 0.

**Q.** What about the Count [1, 3] of the same compound?
**A.** The Count was 1.

**Q.** What about the EBGM [1, 3] of the same compound?
**A.** Its EBGM is 0.86.

**Q.** What about the Count ([1]; Blood bilirubin increased) of the same compound?
**A.** The Count was 0.

**Q.** What about the Count [1, 4] of the same compound?
**A.** Its Count is 0.

**Q.** And the Count ([1]; Hepatic congestion)?
**A.** The Count was 0.

**Q.** And the Count ([1]; Hepatic encephalopathy)?
**A.** Its Count is 0.

**Q.** What about the Count ([1]; Hepatic enzyme increased) of the same compound?
**A.** Its Count is 3.

**Q.** What about the EBGM ([1]; Hepatic enzyme increased) of the same compound?
**A.** The EBGM was 1.67.

**Q.** What about the Count ([1]; Hepatic failure) of the same compound?
**A.** Its Count is 0.

**Q.** What about the Count ([1]; Hepatic function abnormal) of the same compound?
**A.** The Count was 0.

**Q.** What about the Count ([1]; Hepatic infarction) of the same compound?
**A.** The Count was 0.

**Q.** What about the Count ([1]; Hepatic necrosis) of the same compound?
**A.** The Count was 0.

**Q.** What about the Count ([1]; Hepatic steatosis) of the same compound?
**A.** The Count was 1.

**Q.** And the EBGM ([1]; Hepatic steatosis)?
**A.** The EBGM was 1.06.

**Q.** What about the Count ([1]; Hepatitis acute) of the same compound?
**A.** The Count was 0.

**Q.** What about the Count ([1]; Hepatitis) of the same compound?
**A.** Its Count is 1.

**Q.** What about the EBGM ([1]; Hepatitis) of the same compound?
**A.** Its EBGM is 0.89.

**Q.** And the Count ([1]; Hepatomegaly)?
**A.** Its Count is 0.

**Q.** And the Count ([1]; Hepatosplenomegaly)?
**A.** The Count was 0.

**Q.** And the Count ([1]; INR increased)?
**A.** The Count was 1.

**Q.** And the EBGM ([1]; INR increased)?
**A.** The EBGM was 0.78.

**Q.** What about the Count ([1]; Liver disorder) of the same compound?
**A.** Its Count is 2.

**Q.** And the EBGM ([1]; Liver disorder)?
**A.** Its EBGM is 1.43.

**Q.** What about the Count ([1]; Liver function test abnormal) of the same compound?
**A.** Its Count is 10.

**Q.** What about the EBGM ([1]; Liver function test abnormal) of the same compound?
**A.** The EBGM was 6.11.

**Q.** And the Count ([1]; Prothrombin time prolonged)?
**A.** The Count was 1.

**Q.** And the EBGM ([1]; Prothrombin time prolonged)?
**A.** The EBGM was 1.29.

**Q.** And the Count ([1]; Spider naevus)?
**A.** Its Count is 0.

**Q.** What about the Count ([1]; Transaminases increased) of the same compound?
**A.** The Count was 2.

**Q.** And the EBGM ([1]; Transaminases increased)?
**A.** Its EBGM is 1.96.

**Q.** And the EB05 ([1]; liver function test abnormal)?
**A.** The EB05 was 3.5.

**Q.** And the Ki [2]?
**A.** Its Ki is roughly 12 pM.
